Experimental data reported in publication PMC12422966, “ACLY inhibition promotes tumour immunity and suppresses liver cancer” (Nature, 2025).

Molecular target: T1, SLC27A2 (FATP2, ACSVL1) (Homo sapiens, UniProt O14975)
T1 construct: SLC27A2 (NM_003645, human tagged ORF clone) expressed in HEK293 cells
Test: LC–MS/MS detection of EVT0185-CoA in HEK293 cells overexpressing SLC27A2, […] EVT0185
Type: cell-based

CC(C)(CCCCc1ccc(CCCCC(C)(C)C(=O)O)cc1)C(=O)O [EVT0185, 6-[4-(5-carboxy-5-methyl-hexyl)-phenyl]−2,2-dimethylhexanoic acid]
LC-MS/MS detection of EVT0185-CoA in HEK293 cells overexpressing SLC27A2, 30 μM: Incubation of HEK293 cells with EVT0185 followed by mass spectrometry analysis indicated that only cells expressing SLC27A2 generated the CoA thioester
